In patent US8785147B2, “L-threonine analysis method and L-threonine dehydrogenase” (Toyama Prefecture, priority 2010, dated 2014):
Read-outs that look alike come from different tables or passages of the source.

What was measured:
[1] = biological target: PfTDH: TDH from Pyrococcus furiosus (Pyrococcus furiosus, UniProt Q8U259); conditions: cited from earlier work
[2] = system: CsTDH: TDH from Clostridium sticklandii; conditions: substrate specificity; L-threonine = 100; cited from earlier work
[3] = system: CyTDH: TDH from Cytophaga sp. KUC-1; conditions: substrate specificity; L-threonine = 100; cited from earlier work
[4] = system: TDH derived from Cupriavidus necator NBRC 102504 (SEQ ID NO: 1) (CnTDH); experiment: Substrate specificity of TDH, standard assay; assay type: biochemical; conditions: for Relative activity (%) CnTDH: substrate concentration 10 mM, standard assay conditions, L-threonine = 100; for Activity of the enzyme with the coenzyme (in words): as coenzyme
Protocol: L-threonine oxidation activity was determined by measuring coenzyme NAD^+ reduction at 30° C. and 340 nm. The reaction composition consisted of a total volume of 1 mL and contained L-threonine (final concentration 10 mM), NAD^+ (final concentration 2.5 mM), and glycine-KCl—KOH buffer (100 mM, pH 10.0). The measurement of activity began with the addition of the enzyme. One unit (U) of enzymatic activity was defined as the amount of enzyme producing 1 μmol of NADH per minute under standard conditions.
TDH was examined using substrates in the form of various L-amino acids, amino alcohols, and alcohols. […]

[5] = biological target: EcTDH: TDH from Escherichia coli K-12 (Escherichia coli, UniProt P07913); conditions: cited from earlier work
EcTDH: TDH from Escherichia coli K-12, sequence (P07913 whole entry): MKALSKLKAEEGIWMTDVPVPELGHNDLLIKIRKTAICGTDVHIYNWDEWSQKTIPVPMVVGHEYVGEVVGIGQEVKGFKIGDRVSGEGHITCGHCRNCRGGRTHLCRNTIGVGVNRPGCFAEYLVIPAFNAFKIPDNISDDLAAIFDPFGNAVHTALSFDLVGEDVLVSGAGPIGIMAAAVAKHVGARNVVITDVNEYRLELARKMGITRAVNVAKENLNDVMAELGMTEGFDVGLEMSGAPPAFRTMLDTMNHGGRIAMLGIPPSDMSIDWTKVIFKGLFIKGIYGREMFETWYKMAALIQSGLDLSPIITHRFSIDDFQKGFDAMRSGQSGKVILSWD

[6] = system: Purified TDH derived from Cupriavidus necator NBRC 102504; experiment: Effect of metal ions and inhibitors on TDH activity (residual activity); assay type: biochemical
[7] = substrate specificity, L-threonine = 100
[8] = metal ions final concentration 1 mM, 30° C. for 1 hour, relative to enzyme without additives
[9] = inhibitors final concentration 10 mM, 30° C. for 1 hour
[10] = inhibitors final concentration 10 mM, 30° C. for 1 hour, None = 100

PfTDH: TDH from Pyrococcus furiosus, sequence (Q8U259 whole entry): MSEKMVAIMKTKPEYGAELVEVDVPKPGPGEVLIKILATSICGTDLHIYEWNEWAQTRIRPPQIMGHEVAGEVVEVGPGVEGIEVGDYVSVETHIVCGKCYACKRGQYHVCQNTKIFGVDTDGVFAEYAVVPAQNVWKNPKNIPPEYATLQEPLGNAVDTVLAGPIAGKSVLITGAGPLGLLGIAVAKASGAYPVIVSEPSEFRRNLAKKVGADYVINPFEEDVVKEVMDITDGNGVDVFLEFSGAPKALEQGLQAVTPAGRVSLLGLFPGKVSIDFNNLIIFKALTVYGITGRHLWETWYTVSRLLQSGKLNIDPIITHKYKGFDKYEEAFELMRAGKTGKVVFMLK

Row | Compound | Relative activity (%) CsTDH [2] [%] | Relative activity (%) CnTDH [4] [%] | Relative activity (residual TDH activity) [6, 8] [%] | also measured
1 | NC(=O)CC[C@H](N)C(=O)O [L-glutamine] | 0 | 0 |  | Relative activity (%) PfTDH [1, 7]: 0%; Relative activity (%) CyTDH [3]: 0%
2 | N[C@@H](Cc1c[nH]cn1)C(=O)O [L-histidine] | 0 | 0 |  | Relative activity (%) PfTDH [1, 7]: 0%; Relative activity (%) CyTDH [3]: 0%
3 | CC[C@H](C)[C@H](N)C(=O)O [L-isoleucine] | 0 | 0 |  | Relative activity (%) PfTDH [1, 7]: 0%; Relative activity (%) CyTDH [3]: 0%
4 | NCCCC[C@H](N)C(=O)O [L-lysine] | 0 | 0 |  | Relative activity (%) PfTDH [1, 7]: 0%; Relative activity (%) CyTDH [3]: 0%
5 | CSCC[C@H](N)C(=O)O [L-methionine] | 0 | 0 |  | Relative activity (%) PfTDH [1]: 0%; Relative activity (%) CyTDH [3]: 0%
6 | NCCC[C@H](N)C(=O)O [L-ornithine] |  | 0 |  | Relative activity (%) PfTDH [1]: 0%
7 | N[C@@H](Cc1ccccc1)C(=O)O [L-phenylalanine] | 0 | 0 |  | Relative activity (%) PfTDH [1, 7]: 0%; Relative activity (%) CyTDH [3]: 0%
8 | O=C(O)[C@@H]1CCCN1 [L-proline] | 0 | 0 |  | Relative activity (%) PfTDH [1]: 0%; Relative activity (%) CyTDH [3]: 0%
9 | C[C@@H](O)[C@H](N)C(N)=O [L-threonine amide] | 0 | 0 |  | Relative activity (%) EcTDH [5]: 98%
10 | C[C@@H](O)[C@H](N)C(=O)O [L-threonine hydroxide] | 0 | 0 |  | Relative activity (%) EcTDH [5, 7]: 25%
11 | N[C@@H](Cc1c[nH]c2ccccc12)C(=O)O [L-tryptophan] | 0 | 0 |  | Relative activity (%) PfTDH [1, 7]: 0%; Relative activity (%) CyTDH [3]: 0%
12 | N[C@@H](Cc1ccc(O)cc1)C(=O)O [L-tyrosine] | 0 | 0 |  | Relative activity (%) PfTDH [1, 7]: 0%; Relative activity (%) CyTDH [3]: 0%
13 | CC(C)[C@H](N)C(=O)O [L-valine] | 0 | 0 |  | Relative activity (%) PfTDH [1, 7]: 0%; Relative activity (%) CyTDH [3]: 0%
14 | [Cl-].[Li+] [LiCl] |  |  | 109 | 
15 | [Cl-].[Cl-].[Mg+2] [MgCl2] |  |  | 112 | 
16 | O=S(=O)([O-])[O-].[Mg+2] [MgSO4] |  |  | 112 | 
17 | [Cl][Mn][Cl] [MnCl2] |  |  | 102 | 

Row | Compound | Relative activity (%) CsTDH [2] [%] | Relative activity (%) CnTDH [4] [%] | Relative activity (residual TDH activity) [6, 8] [%] | also measured
18 | O=S(=O)([O-])[O-].[Mn+2] [MnSO4] |  |  | 114 | 
19 | NC(=O)c1ccc[n+]([C@@H]2O[C@H](COP(=O)([O-])OP(=O)(O)OC[C@H]3O[C@@H](n4cnc5c(N)ncnc54)[C@H](OP(=O)(O)O)[C@@H]3O)[C@@H](O)[C@H]2O)c1 [NADP^+] |  |  |  | Activity of the enzyme with the coenzyme (in words) [4]: No activity of the enzyme was observed
20 | NC(=O)c1ccc[n+]([C@@H]2O[C@H](COP(=O)([O-])OP(=O)(O)OC[C@H]3O[C@@H](n4cnc5c(N)ncnc54)[C@H](O)[C@@H]3O)[C@@H](O)[C@H]2O)c1 [NAD^+, nicotinamide adenine dinucleotide] |  |  |  | Activity of the enzyme with the coenzyme (in words) [4]: showed the activity
21 | CCN1C(=O)C=CC1=O [NEM] |  |  |  | Inhibition of TDH activity (in words) [6, 9]: inhibited; Relative activity (%) (residual TDH activity) [6, 10]: 0.0%
22 | [Na+].[Na+].[O]=[Mo](=[O])([O-])[O-] [NaMoO4] |  |  | 113 | 
23 | [N-]=[N+]=[N-].[Na+] [NaN3] |  |  |  | Relative activity (%) (residual TDH activity) [6]: 12%
24 | [Cl][Ni][Cl] [NiCl2] |  |  | 119 | 
25 | O=C(O)c1cc[c]([Hg][Cl])cc1 [PCMB] |  |  |  | Relative activity (%) (residual TDH activity) [6, 10]: 6.2%
26 | COS(=O)(=O)[O-].C[n+]1c2ccccc2nc2ccccc21 [PMS, phenazine methosulfate] |  |  |  | Inhibition of TDH activity (in words) [6, 9]: inhibited; Relative activity (%) (residual TDH activity) [6, 10]: 0.0%
27 | [Cl][Pb][Cl] [PbCl2] |  |  | 118 | 
28 | [Cl][Sn][Cl] [SnCl2] |  |  | 84 | 
29 | NCCS(=O)(=O)O [Taurine] |  | 0 |  | 
30 | [Cl-].[Cl-].[Zn+2] [ZnCl2] |  |  | 105 | 
31 | O=S(=O)([O-])[O-].[Zn+2] [ZnSO4] |  |  | 109 | 
32 | OCCS [β-mercaptoethanol] |  |  |  | Inhibition of TDH activity (in words) [6, 9]: Nor did the reducing agents β-mercaptoethanol and DTT inhibit enzymatic activity; Relative activity (%) (residual TDH activity) [6, 10]: 114%
33 | Calcium pantothenate |  |  |  | Inhibition of TDH activity (in words) [6, 9]: slight inhibiting; Relative activity (%) (residual TDH activity) [6, 10]: 95.0%
34 | CoCl2 |  |  |  | Relative activity (residual TDH activity) [6]: 115%
